From US20260035367A1 (Celgene Corporation, priority 2021, published 2026)
Read-outs that look alike come from different tables or passages of the source.

Tests used:
[1] = test system: IL-2 secretion by human effector memory T cells (TEM); test: Effector memory T cells IL-2 release assay (CD3/CD28 stimulation, HTRF IL-2 detection); assay type: cell-based; conditions: Homo sapiens, T-cell, 24 h
Method in brief: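 IL-2 released into the supernatant was quantified by HTRF after 24 h at 37 °C in 5% CO2. The cells were stimulated primary human TEM from donor buffy coats, treated with a 10-point semi-log compound series (0.1% DMSO final, triplicates).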

[2] = target: T1, Recombinant human PKC-theta (His-tagged 362-706) (Homo sapiens, UniProt Q04759); test: PKC-theta inhibition assay (HTRF KinEASE kit); assay type: biochemical; conditions: ATP 6.5 μM, STK substrate 525 nM
T1 construct: Recombinant human PKC-theta (His-tagged 362-706); His
T1 sequence (Q04759 362-706): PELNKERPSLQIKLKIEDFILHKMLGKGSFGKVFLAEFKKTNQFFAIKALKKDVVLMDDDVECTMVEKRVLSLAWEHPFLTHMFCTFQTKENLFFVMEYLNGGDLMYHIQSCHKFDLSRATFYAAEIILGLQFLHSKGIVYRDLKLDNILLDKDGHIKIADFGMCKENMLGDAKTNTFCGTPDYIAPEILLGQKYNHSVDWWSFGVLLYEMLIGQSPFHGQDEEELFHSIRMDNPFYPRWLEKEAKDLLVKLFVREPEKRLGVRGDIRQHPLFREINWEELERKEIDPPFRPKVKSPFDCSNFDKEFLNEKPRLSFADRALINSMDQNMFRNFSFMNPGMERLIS
Method in brief: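 IC50 values were from 4-parameter logistic fits of percent inhibition, based on acceptor/donor HTRF ratios over 10 semi-log compound doses. Kinase reactions, started with substrate plus ATP, ran 30 min at 25 °C in buffer supplemented with 10 mM MgCl2, 1 mM DTT and 0.1% Tween 20; detection lasted 2 h.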

[3] = target: T2, Recombinant human PKC-delta (His-tagged 345-676) (Homo sapiens, UniProt Q05655); test: PKC-delta inhibition assay (HTRF KinEASE kit); assay type: biochemical; conditions: ratio, PKC-theta vs PKC-delta HTRF; for PKC-theta/PKC-delta selectivity (binned): binned A to G
T2 construct: PKC-delta (His-tagged 345-676); His
T2 sequence (Q05655 345-676): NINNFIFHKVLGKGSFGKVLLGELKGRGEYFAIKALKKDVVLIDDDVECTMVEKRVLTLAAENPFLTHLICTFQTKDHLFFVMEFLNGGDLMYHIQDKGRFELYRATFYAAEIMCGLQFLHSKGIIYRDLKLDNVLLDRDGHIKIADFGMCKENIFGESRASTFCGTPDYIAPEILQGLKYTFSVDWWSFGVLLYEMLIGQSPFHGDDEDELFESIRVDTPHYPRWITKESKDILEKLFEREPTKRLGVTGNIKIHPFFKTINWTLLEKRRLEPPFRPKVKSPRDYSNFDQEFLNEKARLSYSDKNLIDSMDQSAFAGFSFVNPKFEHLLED
Description: PKC-theta and PKC-delta biochemical activities were measured using the PKC-theta HTRF KinEASEkit kit, according to manufacturer's instructions (Cisbio, catalogue number 61ST1PEJ). Briefly, the kinase buffer component of the kit was supplemented with 10 mM MgCl2, 1 mM DTT and 0.1% Tween 20. […] The streptavidin_XL665 and STK antibody-cryptate detection reagents were mixed according to the manufacturer's instructions. Test compounds were diluted in DMSO in a series of 10 semi-log step doses; 10 nL of each compound dose were dispensed in 384 well plates. […] The reaction was started by addition of the substrate and ATP and incubated at 25° C. for 30 minutes or 20 minutes for the PKC-theta and PKC-delta assays, respectively. The detection reagents were added, and the plate was incubated in the dark for 2 hours. […] The ratio of acceptor and donor emission signals was calculated for each well.

[4] = binned A to G, read-out: PKC-theta IL2 pIC50 (binned) (converted)
[5] = read-out: PKC-theta IL2 pIC50 (converted)
[6] = binned A to H, read-out: PKC-theta HTRF pIC50 (binned) (converted)
[7] = read-out: PKC-theta HTRF pIC50 (converted)

Compound	IC50 [1, 4] [nM]	IC50 [1, 5] [nM]	IC50 [2, 6] [nM]	IC50 [2, 7] [nM]	PKC-theta/PKC-delta selectivity [3]	PKC-theta/PKC-delta selectivity (binned) [3]
CC[C@]1(O)C(=O)Nc2nccc(-c3cc(Cl)cc(N4CCN[C@@H](C)C4)n3)c21 (single isomer, unassigned) [Example 163]	10 to 31.6	31.6	3.16 to 10	3.98	10	D (a ratio of between 10 and 20)
CC1(C)C(=O)Nc2nccc(-c3cc(C(F)(F)F)cc(N4CCN[C@@H](CO)C4)n3)c21 [Example 83]	31.6 to 100	79.4	1 to 3.16	3.16	20	D (a ratio of between 10 and 20)
CC1(C)C(=O)Nc2nccc(-c3cccc(N4CCNCC4)n3)c21 [Example 38]	100 to 316	158	3.16 to 10	10	4	F (a ratio of between 1 and 5)
CC1(C)C(=O)Nc2nccc(-c3cc(C(F)(F)F)cc(N4CCCNCC4)n3)c21 [Example 175]	31.6 to 100	63.1	3.16 to 10	5.01	21	C (a ratio of between 20 and 30)
CCC1(C)C(=O)Nc2nccc(-c3cc(Cl)cc(N4CCN[C@@H](C)C4)n3)c21 (stereo partly drawn) [Example 147]	31.6 to 100	31.6	1 to 3.16	2.51	10	D (a ratio of between 10 and 20)
C[C@H]1CCNCCN1c1cc(C(F)(F)F)cc(-c2ccnc3c2C(C)(C)C(=O)N3)n1 [Example 187]	31.6 to 100	100	3.16 to 10	5.01	28	C (a ratio of between 20 and 30)
CC[C@@]1(C)C(=O)Nc2nccc(-c3cc(C(F)(F)F)cc(N4CCNC[C@H]4C)n3)c21 (single isomer, unassigned) [Example 198]	31.6 to 100	63.1	3.16 to 10	3.98	30	C (a ratio of between 20 and 30)
C[C@H](O)[C@@H]1CN(c2cc(C(F)(F)F)cc(-c3ccnc4c3C(C)(C)C(=O)N4)n2)CCN1 [Example 121]	316 to 1000	631	10 to 31.6	25.1	12	D (a ratio of between 10 and 20)
CC1(C)C(=O)Nc2nccc(-c3cccc(N4CCNCC4)c3)c21 [Example 23]	> 1000	1580	100 to 316	100	2	F (a ratio of between 1 and 5)
C[C@H]1CNCCN1c1cc(F)cc(-c2ccnc3c2C(C)(O)C(=O)N3)c1 (stereo partly drawn) [Example 58]	316 to 1000	316	10 to 31.6	12.6	7	E (a ratio of between 5 and 10)
C[C@@H]1CN(c2cc(C(F)(F)F)cc(-c3ccnc4c3[C@](C)(O)C(=O)N4)n2)[C@H](C)CN1 (single isomer, unassigned) [Example 119]	100 to 316	200	3.16 to 10	3.98	12	D (a ratio of between 10 and 20)
CC[C@@]1(C)C(=O)Nc2nccc(-c3cc(C(F)(F)F)cc(N4CCN[C@@H](C)C4)n3)c21 (single isomer, unassigned) [Example 154]	100 to 316	126	3.16 to 10	7.94	19	D (a ratio of between 10 and 20)
C[C@@]1(O)C(=O)Nc2nccc(-c3cc(Cl)cc(N4CCNCC(F)C4)n3)c21 (single isomer, unassigned) [Example 91]	100 to 316	200	3.16 to 10	6.31	6	E (a ratio of between 5 and 10)
C[C@@]1(O)C(=O)Nc2nccc(-c3cc(C(F)(F)F)cc(N4CC5CC(C4)N5)n3)c21 (single isomer, unassigned) [Example 149]	316 to 1000	398	10 to 31.6	25.1	15	D (a ratio of between 10 and 20)
CC[C@]1(O)C(=O)Nc2nccc(-c3cc(C(F)(F)F)cc(N4CCNC[C@H]4C)n3)c21 (single isomer, unassigned) [Example 167]	> 1000	2510	100 to 316	316	33	B (a ratio of between 30 and 50)
CC1C(=O)Nc2nccc(-c3cccc(C(=O)N4CCNCC4)c3)c21 (stereo not drawn) [Example 27]	> 1000	10000	316 to 1000	1000	1	F (a ratio of between 1 and 5)
C[C@@H]1CN(c2cc(C(F)(F)F)cc(-c3ccnc4c3C(C)(C)C(=O)N4)n2)[C@@H](C)CN1 [Example 117]	100 to 316	200	10 to 31.6	12.6	10	D (a ratio of between 10 and 20)
C[C@H]1CNCCN1c1cccc(-c2ccnc3c2C(C)(C)C(=O)N3)c1 [Example 39]	> 1000	2510	100 to 316	200	1	F (a ratio of between 1 and 5)
C[C@@H]1CN(c2cc(C(C)(F)F)cc(-c3ccnc4c3C(C)(C)C(=O)N4)n2)CCCN1 [Example 204]	100 to 316	126	3.16 to 10	6.31	24	C (a ratio of between 20 and 30)
CC1C(=O)Nc2nccc(-c3cc(F)cc(N4CCNCC4)c3)c21 (stereo not drawn) [Example 18]	100 to 316	200	10 to 31.6	25.1	3	F (a ratio of between 1 and 5)
CC1(C)C(=O)Nc2ncc(Br)c(-c3cc(F)cc(N4CCNCC4)c3)c21 [Example 69]	316 to 1000	398	31.6 to 100	39.8	1	F (a ratio of between 1 and 5)
C[C@H]1CNCCN1c1cc(Cl)cc(-c2ccnc3c2[C@](C)(O)C(=O)N3)n1 (single isomer, unassigned) [Example 104]	100 to 316	126	3.16 to 10	5.01	11	D (a ratio of between 10 and 20)
CCC1(O)C(=O)Nc2nccc(-c3cc(C(F)(F)F)cc(N4CCN[C@@H](C)C4)n3)c21 (stereo partly drawn) [Example 111]	100 to 316	126	3.16 to 10	5.01	17	D (a ratio of between 10 and 20)
C[C@@H]1CNCCN1c1cc(Cl)cc(-c2ccnc3c2[C@](C)(O)C(=O)N3)n1 (single isomer, unassigned) [Example 105]	10 to 31.6	20	0.316 to 1	1	7	E (a ratio of between 5 and 10)
CC[C@@H]1CN(c2cc(C(F)(F)F)cc(-c3ccnc4c3C(C)(O)C(=O)N4)n2)CCN1 (stereo partly drawn) [Example 72]	100 to 316	316	10 to 31.6	25.1	12	D (a ratio of between 10 and 20)
CC[C@]1(C)C(=O)Nc2nccc(-c3cc(C(F)(F)F)cc(N4CCNC[C@H]4C)n3)c21 (single isomer, unassigned) [Example 197]	10 to 31.6	15.8	0.316 to 1	1	14	D (a ratio of between 10 and 20)
Cc1cc(-c2ccnc3c2C(C)(C)C(=O)N3)cc(N2CCNCC2)c1 [Example 61]	316 to 1000	794	31.6 to 100	50.1	6	E (a ratio of between 5 and 10)
C[C@H]1CN(c2cc(-c3ccnc4c3C(C)(O)C(=O)N4)cc(C(F)(F)F)c2)CCN1 (stereo partly drawn) [Example 78]	100 to 316	158	10 to 31.6	15.8	11	D (a ratio of between 10 and 20)
